From PubChem BioAssay (NCI)
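In this assay, cells in 96-well plates receive the compound at five concentrations for 48 hours. Endpoints are linearly interpolated between the surrounding concentrations. TGI is the concentration that stops growth completely.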

How the values were obtained:
Assay in all cases: NCI tumour cell line growth inhibition, 48 h
KM12 colon = tested on: KM12 colon
M19-MEL melanoma = tested on: M19-MEL melanoma
M14 melanoma = tested on: M14 melanoma
SK-MEL-28 melanoma = tested on: SK-MEL-28 melanoma
SF-295 CNS = tested on: SF-295 CNS
OVCAR-5 ovarian = tested on: OVCAR-5 ovarian
A549 NSCLC = tested on: A549 NSCLC
UACC-257 melanoma = tested on: UACC-257 melanoma
786-0 renal = tested on: 786-0 renal
NCI-H522 lung = tested on: NCI-H522 lung
HCT-15 colon = tested on: HCT-15 colon
U251 CNS = tested on: U251 CNS
XF 498 CNS = tested on: XF 498 CNS
HCC-2998 colon = tested on: HCC-2998 colon
KM20L2 colon = tested on: KM20L2 colon
UO-31 renal = tested on: UO-31 renal
TK-10 renal = tested on: TK-10 renal
OVCAR-8 ovarian = tested on: OVCAR-8 ovarian
LXFL 529 NSCLC = tested on: LXFL 529 NSCLC
NCI-H460 lung = tested on: NCI-H460 lung
SNB-78 CNS = tested on: SNB-78 CNS
DLD-1 colon = tested on: DLD-1 colon
RXF 393 renal = tested on: RXF 393 renal
MALME-3M melanoma = tested on: MALME-3M melanoma
K-562 leukemia = tested on: K-562 leukemia
DMS 114 small cell lung = tested on: DMS 114 small cell lung
HOP-62 NSCLC = tested on: HOP-62 NSCLC
EKVX NSCLC = tested on: EKVX NSCLC
MOLT-4 leukemia = tested on: MOLT-4 leukemia
LOX IMVI melanoma = tested on: LOX IMVI melanoma
RPMI-8226 leukemia = tested on: RPMI-8226 leukemia
IGROV1 ovarian = tested on: IGROV1 ovarian
HOP-92 NSCLC = tested on: HOP-92 NSCLC
SNB-19 CNS = tested on: SNB-19 CNS
OVCAR-3 ovarian = tested on: OVCAR-3 ovarian
SK-OV-3 ovarian = tested on: SK-OV-3 ovarian
SF-268 CNS = tested on: SF-268 CNS
A498 renal = tested on: A498 renal
ACHN renal = tested on: ACHN renal
SN12C renal = tested on: SN12C renal
SW-620 colon = tested on: SW-620 colon
SK-MEL-5 melanoma = tested on: SK-MEL-5 melanoma
UACC-62 melanoma = tested on: UACC-62 melanoma
CCRF-CEM leukemia = tested on: CCRF-CEM leukemia
HL-60(TB) leukemia = tested on: HL-60(TB) leukemia
HCT-116 colon = tested on: HCT-116 colon
SK-MEL-2 melanoma = tested on: SK-MEL-2 melanoma
COLO 205 colon = tested on: COLO 205 colon
DMS 273 small cell lung = tested on: DMS 273 small cell lung
SF-539 CNS = tested on: SF-539 CNS
NCI-H23 lung = tested on: NCI-H23 lung
SR leukemia = tested on: SR leukemia
OVCAR-4 ovarian = tested on: OVCAR-4 ovarian
CAKI-1 renal = tested on: CAKI-1 renal
HT29 colon = tested on: HT29 colon
HOP-18 NSCLC = tested on: HOP-18 NSCLC
SNB-75 CNS = tested on: SNB-75 CNS
NCI-H226 lung = tested on: NCI-H226 lung

COC(=O)C1[C@@H](C(=O)OC)C12C=Cc1ccccc1C=C2 (stereo partly specified)
TGI (KM12 colon): > 100 µM
TGI (M19-MEL melanoma): > 100 µM
TGI (M14 melanoma): > 100 µM
TGI (SK-MEL-28 melanoma): > 100 µM
TGI (SF-295 CNS): > 100 µM
TGI (OVCAR-5 ovarian): > 100 µM
TGI (A549 NSCLC): > 100 µM
TGI (UACC-257 melanoma): > 100 µM
TGI (786-0 renal): > 100 µM
TGI (NCI-H522 lung): > 100 µM
TGI (HCT-15 colon): > 100 µM
TGI (U251 CNS): > 100 µM
TGI (XF 498 CNS): > 100 µM
TGI (HCC-2998 colon): > 100 µM
TGI (KM20L2 colon): > 100 µM
TGI (UO-31 renal): > 100 µM
TGI (TK-10 renal): > 100 µM
TGI (OVCAR-8 ovarian): > 100 µM
TGI (LXFL 529 NSCLC): > 100 µM
TGI (NCI-H460 lung): > 100 µM
TGI (SNB-78 CNS): > 100 µM
TGI (DLD-1 colon): > 100 µM
TGI (RXF 393 renal): > 100 µM
TGI (MALME-3M melanoma): > 100 µM
TGI (K-562 leukemia): > 100 µM
TGI (DMS 114 small cell lung): > 100 µM
TGI (HOP-62 NSCLC): > 100 µM
TGI (EKVX NSCLC): > 100 µM
TGI (MOLT-4 leukemia): > 100 µM
TGI (LOX IMVI melanoma): > 100 µM
TGI (RPMI-8226 leukemia): > 100 µM
TGI (IGROV1 ovarian): > 100 µM
TGI (HOP-92 NSCLC): > 100 µM
TGI (SNB-19 CNS): > 100 µM
TGI (OVCAR-3 ovarian): > 100 µM
TGI (SK-OV-3 ovarian): > 100 µM
TGI (SF-268 CNS): > 100 µM
TGI (A498 renal): > 100 µM
TGI (ACHN renal): > 100 µM
TGI (SN12C renal): > 100 µM
TGI (SW-620 colon): > 100 µM
TGI (SK-MEL-5 melanoma): > 100 µM
TGI (UACC-62 melanoma): > 100 µM
TGI (CCRF-CEM leukemia): > 100 µM
TGI (HL-60(TB) leukemia): > 100 µM
TGI (HCT-116 colon): > 100 µM
TGI (SK-MEL-2 melanoma): > 100 µM
TGI (COLO 205 colon): > 100 µM
TGI (DMS 273 small cell lung): > 100 µM
TGI (SF-539 CNS): > 100 µM
TGI (NCI-H23 lung): > 100 µM
TGI (SR leukemia): > 100 µM

COC(=O)C12C(=O)O[C@H](C)C1(O)C(C)C(=O)N2C (stereo partly specified)
TGI (OVCAR-4 ovarian): > 100 µM
TGI (KM12 colon): > 100 µM
TGI (M19-MEL melanoma): > 100 µM
TGI (M14 melanoma): > 100 µM
TGI (SK-MEL-28 melanoma): > 100 µM
TGI (SF-295 CNS): > 100 µM
TGI (OVCAR-5 ovarian): > 100 µM
TGI (786-0 renal): > 100 µM
TGI (HCT-15 colon): > 100 µM
TGI (U251 CNS): > 100 µM
TGI (XF 498 CNS): 86.2 µM
TGI (CAKI-1 renal): > 100 µM
TGI (HCC-2998 colon): > 100 µM
TGI (UO-31 renal): > 100 µM
TGI (TK-10 renal): > 100 µM
TGI (OVCAR-8 ovarian): > 100 µM
TGI (SNB-78 CNS): > 100 µM
TGI (DLD-1 colon): > 100 µM
TGI (RXF 393 renal): > 100 µM
TGI (MALME-3M melanoma): > 100 µM
TGI (K-562 leukemia): > 100 µM
TGI (DMS 114 small cell lung): > 100 µM
TGI (HOP-62 NSCLC): > 100 µM
TGI (EKVX NSCLC): > 100 µM
TGI (MOLT-4 leukemia): > 100 µM
TGI (RPMI-8226 leukemia): > 100 µM
TGI (IGROV1 ovarian): > 100 µM
TGI (SNB-19 CNS): > 100 µM
TGI (OVCAR-3 ovarian): > 100 µM
TGI (SK-OV-3 ovarian): > 100 µM
TGI (HT29 colon): > 100 µM
TGI (SK-MEL-5 melanoma): > 100 µM
TGI (UACC-62 melanoma): > 100 µM
TGI (HCT-116 colon): > 100 µM
TGI (SK-MEL-2 melanoma): > 100 µM
TGI (COLO 205 colon): > 100 µM
TGI (SF-539 CNS): > 100 µM
TGI (NCI-H23 lung): > 100 µM
TGI (HOP-18 NSCLC): > 100 µM
TGI (SR leukemia): > 100 µM

COc1cc(C=Nc2ccc(C(C)C)cc2)cc(OC)c1OC
TGI (OVCAR-4 ovarian): > 100 µM
TGI (KM12 colon): > 100 µM
TGI (M19-MEL melanoma): > 100 µM
TGI (M14 melanoma): > 100 µM
TGI (SK-MEL-28 melanoma): > 100 µM
TGI (SF-295 CNS): > 100 µM
TGI (OVCAR-5 ovarian): > 100 µM
TGI (A549 NSCLC): > 100 µM
TGI (UACC-257 melanoma): > 100 µM
TGI (786-0 renal): > 100 µM
TGI (NCI-H522 lung): > 100 µM
TGI (HCT-15 colon): > 100 µM
TGI (U251 CNS): > 100 µM
TGI (XF 498 CNS): > 100 µM
TGI (CAKI-1 renal): > 100 µM
TGI (KM20L2 colon): > 100 µM
TGI (UO-31 renal): > 100 µM
TGI (TK-10 renal): > 100 µM
TGI (OVCAR-8 ovarian): > 100 µM
TGI (LXFL 529 NSCLC): > 100 µM
TGI (NCI-H460 lung): > 100 µM
TGI (SNB-78 CNS): > 100 µM
TGI (DLD-1 colon): > 100 µM
TGI (RXF 393 renal): > 100 µM
TGI (MALME-3M melanoma): > 100 µM
TGI (K-562 leukemia): > 86.7 µM
TGI (DMS 114 small cell lung): > 100 µM
TGI (HOP-62 NSCLC): > 100 µM
TGI (EKVX NSCLC): > 100 µM
TGI (MOLT-4 leukemia): > 100 µM
TGI (LOX IMVI melanoma): > 100 µM
TGI (RPMI-8226 leukemia): > 68.4 µM
TGI (IGROV1 ovarian): > 100 µM
TGI (HOP-92 NSCLC): > 100 µM
TGI (SNB-19 CNS): > 100 µM
TGI (OVCAR-3 ovarian): > 100 µM
TGI (SK-OV-3 ovarian): > 100 µM
TGI (SF-268 CNS): > 100 µM
TGI (A498 renal): > 100 µM
TGI (HT29 colon): > 100 µM
TGI (ACHN renal): > 100 µM
TGI (SNB-75 CNS): > 100 µM
TGI (SN12C renal): > 100 µM
TGI (SW-620 colon): > 54.6 µM
TGI (NCI-H226 lung): > 100 µM
TGI (SK-MEL-5 melanoma): > 100 µM
TGI (UACC-62 melanoma): > 100 µM
TGI (CCRF-CEM leukemia): > 100 µM
TGI (HL-60(TB) leukemia): > 82.3 µM
TGI (HCT-116 colon): > 100 µM
TGI (SK-MEL-2 melanoma): > 100 µM
TGI (COLO 205 colon): > 100 µM
TGI (DMS 273 small cell lung): > 100 µM
TGI (SF-539 CNS): > 100 µM
TGI (NCI-H23 lung): > 100 µM
TGI (HOP-18 NSCLC): > 100 µM
TGI (SR leukemia): > 100 µM

C#C[C@]1(O)CCC2C3CCc4cc(Oc5nc(F)nc(-c6c7cc8ccccc8cc7c7n6CCS7)n5)ccc4C3CCC21C (stereo partly specified)
TGI (KM12 colon): > 100 µM
TGI (M19-MEL melanoma): > 100 µM
TGI (M14 melanoma): 96 µM
TGI (SK-MEL-28 melanoma): > 100 µM
TGI (SF-295 CNS): > 100 µM
TGI (A549 NSCLC): > 100 µM
TGI (UACC-257 melanoma): > 100 µM
TGI (786-0 renal): > 100 µM
TGI (NCI-H522 lung): 62.7 µM
TGI (U251 CNS): > 100 µM
TGI (XF 498 CNS): > 100 µM
TGI (HCC-2998 colon): > 100 µM
TGI (KM20L2 colon): 99.6 µM
TGI (UO-31 renal): > 100 µM
TGI (TK-10 renal): > 100 µM
TGI (OVCAR-8 ovarian): > 100 µM
TGI (LXFL 529 NSCLC): > 100 µM
TGI (NCI-H460 lung): > 100 µM
TGI (SNB-78 CNS): > 100 µM
TGI (DLD-1 colon): > 100 µM
TGI (RXF 393 renal): > 100 µM
TGI (MALME-3M melanoma): > 100 µM
TGI (K-562 leukemia): > 100 µM
TGI (DMS 114 small cell lung): 50.8 µM
TGI (HOP-62 NSCLC): > 100 µM
TGI (EKVX NSCLC): > 100 µM
TGI (MOLT-4 leukemia): > 100 µM
TGI (LOX IMVI melanoma): > 100 µM
TGI (RPMI-8226 leukemia): > 100 µM
TGI (IGROV1 ovarian): > 100 µM
TGI (HOP-92 NSCLC): > 100 µM
TGI (SNB-19 CNS): > 100 µM
TGI (OVCAR-3 ovarian): > 100 µM
TGI (SK-OV-3 ovarian): > 100 µM
TGI (SF-268 CNS): > 100 µM
TGI (HT29 colon): 74.3 µM
TGI (ACHN renal): > 100 µM
TGI (SNB-75 CNS): > 100 µM
TGI (SN12C renal): > 100 µM
TGI (SW-620 colon): > 100 µM
TGI (NCI-H226 lung): > 100 µM
TGI (SK-MEL-5 melanoma): > 100 µM
TGI (UACC-62 melanoma): 55.3 µM
TGI (CCRF-CEM leukemia): > 100 µM
TGI (HL-60(TB) leukemia): > 100 µM
TGI (HCT-116 colon): > 100 µM
TGI (SK-MEL-2 melanoma): 89.7 µM
TGI (COLO 205 colon): 42.2 µM
TGI (DMS 273 small cell lung): > 100 µM
TGI (SF-539 CNS): > 100 µM
TGI (NCI-H23 lung): > 100 µM
TGI (HOP-18 NSCLC): > 100 µM
